The source made the active and inactive calls.
Columns and labels:
HEK293 [1] = assay: cytotoxicity in HEK293T NF-kB-Luc cells, SAR follow-up, cytotoxicity control for NF-kB activator project, cell-based, resazurin fluorescence (AID 493251); type: functional; settings: Homo sapiens
Jurkat = assay: SAR Analysis of small molecule inhibitors of T-cell specific antigen receptor-induced NF-kB activation in a Jurkat cell line using a luminescence assay - Set 2. [Related pubchem assays (depositor defined):AID435003, AID435012, AID465]; type: functional, cell-based; settings: Homo sapiens
HEK293 [2] = assay: SAR Analysis of small molecule inhibitors of T-cell specific antigen receptor-induced NF-kB activation in a HEK-293T cell line using a luminescence assay - Set 2. [Related pubchem assays (depositor defined):AID435003, AID435012, AID489026]; type: functional, cell-based; settings: Homo sapiens
[3] = target: T1, RNA-binding protein pos-1 (Caenorhabditis elegans, UniProt G5EF15); assay: inhibitors of POS-1/mex-3 RNA binding, dose response, biochemical, fluorescence polarization (AID 1964);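 note: purified POS-1 fused to maltose binding protein made in E. coli; potency of compounds blocking POS-1 binding to fluorescent RNA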
T1 sequence (G5EF15 whole entry): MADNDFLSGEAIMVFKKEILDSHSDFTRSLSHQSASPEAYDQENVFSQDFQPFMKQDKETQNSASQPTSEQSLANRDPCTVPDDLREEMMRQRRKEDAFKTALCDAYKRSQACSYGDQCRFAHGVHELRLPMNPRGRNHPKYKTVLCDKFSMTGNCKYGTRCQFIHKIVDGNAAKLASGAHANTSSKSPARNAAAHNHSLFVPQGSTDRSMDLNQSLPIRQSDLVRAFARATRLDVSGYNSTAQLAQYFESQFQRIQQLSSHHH

Prothrombin = Prothrombin (Bos taurus, UniProt P00735); assay: thrombin inhibition, dose response, biochemical, fluorescence polarization, uHTS hits (AID 602369); type: functional
[4] = target: T2, Zinc finger protein mex-5 (Caenorhabditis elegans, UniProt Q9XUB2); assay: MEX-5/TCR-2 RNA interaction inhibitors, dose response, biochemical, C. elegans, fluorescence polarization (AID 1960)
T2 sequence (Q9XUB2 whole entry): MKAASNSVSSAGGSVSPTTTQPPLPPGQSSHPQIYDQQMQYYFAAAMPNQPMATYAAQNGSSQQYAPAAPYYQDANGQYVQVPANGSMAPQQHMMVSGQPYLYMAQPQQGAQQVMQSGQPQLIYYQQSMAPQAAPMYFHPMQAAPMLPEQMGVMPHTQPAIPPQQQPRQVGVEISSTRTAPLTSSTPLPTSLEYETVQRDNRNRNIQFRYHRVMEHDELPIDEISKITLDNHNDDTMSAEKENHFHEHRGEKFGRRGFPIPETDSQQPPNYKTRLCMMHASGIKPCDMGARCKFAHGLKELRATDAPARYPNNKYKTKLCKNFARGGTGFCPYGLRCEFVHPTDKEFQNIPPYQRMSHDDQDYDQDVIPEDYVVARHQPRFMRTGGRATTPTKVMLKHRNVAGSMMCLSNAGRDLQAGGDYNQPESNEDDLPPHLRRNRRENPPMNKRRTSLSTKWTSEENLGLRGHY

[5] = target: 26S proteasome non-ATPase regulatory subunit 14 (Homo sapiens, UniProt O00487); assay: inhibition of proteasome subunit RPN11 – biochemical, fluorescence polarization, uHTS hits, confirmation (AID 602368); type: functional
[6] = target: 72 kDa type IV collagenase (Homo sapiens, UniProt P08253); assay: Dose Response validation of uHTS RPN11 inhibitor hits using a MMP-2 Fluorescence assay.; type: functional
INS1 = assay: beta cell apoptosis inhibitors, cytokine rescue, dose response, luminescence, retest (AID 449756); type: functional, cell-based; settings: Rattus norvegicus;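 note: cell death triggered by IL-1 beta plus TNF-alpha plus IFN-gamma mixture; protective hits raise ATP signal compared with cytokine alone wells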
[7] = inhibitors of firefly luciferase expression or activity, dose response, H4 neuroglioma cells, luminescence (AID 1990); type: functional, cell-based
[8] = inhibitors of SNCA 5'UTR-driven reporter translation, confirmation, H4 neuroglioma cells, luminescence (AID 1988); type: functional, cell-based
[9] = target: T3, Heat shock factor protein 1 (Mus musculus, UniProt P38532); assay: HSF1 potentiators in luciferase reporter cells, confirmation, cell-based, NIH3T3, luminescence, dose retest (AID 435004); type: functional;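 note: stress induced by proteasome inhibitor MG132 added 30 min after compound; luciferase reporter driven by HSF1 response element in NIH3T3 cells; actives raise luminescence as potentiators of the MG132 stress response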
T3 sequence (P38532 whole entry): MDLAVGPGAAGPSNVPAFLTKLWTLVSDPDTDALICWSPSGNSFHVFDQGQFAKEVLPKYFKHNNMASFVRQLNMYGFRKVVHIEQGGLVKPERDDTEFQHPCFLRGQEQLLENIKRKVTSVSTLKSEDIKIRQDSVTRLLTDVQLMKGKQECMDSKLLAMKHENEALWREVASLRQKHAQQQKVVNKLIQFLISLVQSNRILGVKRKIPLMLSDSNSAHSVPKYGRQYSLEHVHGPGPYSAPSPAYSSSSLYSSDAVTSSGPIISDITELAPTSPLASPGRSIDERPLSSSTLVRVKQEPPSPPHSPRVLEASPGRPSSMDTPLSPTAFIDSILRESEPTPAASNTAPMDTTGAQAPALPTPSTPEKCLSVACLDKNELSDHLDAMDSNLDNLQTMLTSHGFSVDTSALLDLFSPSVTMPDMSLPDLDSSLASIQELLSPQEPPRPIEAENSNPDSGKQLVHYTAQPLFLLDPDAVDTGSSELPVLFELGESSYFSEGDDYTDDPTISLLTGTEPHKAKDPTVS

[10] = cytotoxicity in HEK-293T cells, dose response, cytotoxicity control for TCR NF-kB inhibitor project, luminescence, T-cell screen hits (AID 489026); type: functional, cell-based;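 note: cells exposed to compound about 14 hours before the viability readout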
[11] = Luminescence Cell-Based Dose Response HTS to Identify Inhibitors of 5'UTR Stem-Loop Driven Prion Protein mRNA Translation in H4 Neuroglioblastoma Cells. [Related pubchem assays: 1827 (Project Summary), 1813 (Primary HTS)]; type: functional
Escherichia coli = assay: microbe, parasite or virus in culture
HEK293 [12] = assay: NOD1 signaling inhibitors, primary screen, cell-based, luminescence, uHTS (AID 1578); type: functional; settings: Homo sapiens
HEK293 [13] = assay: cells; type: functional, cell-based; settings: Homo sapiens
HEK293 [14] = assay: NOD2 signaling inhibitors in MDP-stimulated cells, cell-based, uHTS, luminescence (AID 2001); type: functional; settings: Homo sapiens
HEK293 [15] = assay: cells; type: functional, cell-based; settings: Homo sapiens; remark: listed apart in the source
[16] = target: FAD-linked sulfhydryl oxidase ALR (Homo sapiens, UniProt P55789); assay: inhibitors of human ALR sulfhydryl oxidase, dose response, biochemical, H2O2 detection, luminescence, cherry-pick (AID 493248)
[17] = cytotoxicity toward NIH3T3 fibroblasts, dose response, counter-screen, cell-based, ATP luminescence, mouse fibroblasts (AID 2010); type: functional;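 note: cells exposed to compound for about 90 hours before reading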
[18] = inhibitors of intracellular T. cruzi replication, confirmation, NIH3T3 host cells, beta-gal luminescence (AID 2044); type: functional, cell-based;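 note: intracellular parasites grown in NIH/3T3 mouse fibroblasts as host cells; luminescent beta-galactosidase reporter signal from transgenic T. cruzi replicating inside host cells; inhibitors lower the luminescence signal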

FAD-linked sulfhydryl oxidase ALR, sequence (P55789 whole entry): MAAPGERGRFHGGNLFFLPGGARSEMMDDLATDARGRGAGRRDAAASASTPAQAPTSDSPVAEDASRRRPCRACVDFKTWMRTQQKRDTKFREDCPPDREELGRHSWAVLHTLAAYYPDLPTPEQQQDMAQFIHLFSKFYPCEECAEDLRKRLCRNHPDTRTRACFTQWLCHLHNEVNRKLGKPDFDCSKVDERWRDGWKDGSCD
72 kDa type IV collagenase, sequence (P08253 whole entry): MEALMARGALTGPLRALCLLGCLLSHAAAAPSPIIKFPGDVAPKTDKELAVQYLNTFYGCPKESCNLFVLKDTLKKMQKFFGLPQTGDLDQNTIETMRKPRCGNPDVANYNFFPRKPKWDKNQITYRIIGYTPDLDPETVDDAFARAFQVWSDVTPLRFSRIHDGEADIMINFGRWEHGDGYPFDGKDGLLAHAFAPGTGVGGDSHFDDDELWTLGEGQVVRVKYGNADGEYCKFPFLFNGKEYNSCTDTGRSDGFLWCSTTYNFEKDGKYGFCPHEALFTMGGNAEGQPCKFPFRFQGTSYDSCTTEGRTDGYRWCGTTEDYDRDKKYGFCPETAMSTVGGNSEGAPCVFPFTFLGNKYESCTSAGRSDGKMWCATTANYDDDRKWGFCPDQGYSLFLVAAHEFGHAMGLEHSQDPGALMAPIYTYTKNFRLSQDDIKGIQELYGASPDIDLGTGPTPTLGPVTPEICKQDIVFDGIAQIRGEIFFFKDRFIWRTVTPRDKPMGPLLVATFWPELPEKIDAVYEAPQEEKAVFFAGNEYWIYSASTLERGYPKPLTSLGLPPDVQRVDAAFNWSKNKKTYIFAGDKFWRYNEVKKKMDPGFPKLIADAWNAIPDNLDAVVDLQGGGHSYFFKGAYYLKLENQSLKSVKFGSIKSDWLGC
26S proteasome non-ATPase regulatory subunit 14, sequence (O00487 whole entry): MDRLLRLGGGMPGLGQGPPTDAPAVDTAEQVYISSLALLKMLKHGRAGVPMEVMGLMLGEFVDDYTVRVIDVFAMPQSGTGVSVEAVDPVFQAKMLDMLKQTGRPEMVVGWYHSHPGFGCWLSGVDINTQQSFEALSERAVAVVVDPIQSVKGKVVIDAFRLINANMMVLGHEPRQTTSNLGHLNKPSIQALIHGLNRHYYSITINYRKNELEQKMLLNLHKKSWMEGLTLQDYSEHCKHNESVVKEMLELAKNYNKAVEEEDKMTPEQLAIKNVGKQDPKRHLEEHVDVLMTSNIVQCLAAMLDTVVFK

CCOc1ccc(C(=O)Nc2ccc(NC(=O)c3cc4ccccc4o3)cc2)cc1[N+](=O)[O-]
IC50 (HEK293 [1]): > 80 µM (inactive)
IC50 (Jurkat): 48.8 µM (inactive)
IC50 (HEK293 [2]): > 80 µM (inactive)

Cc1cc(C)c2c(=O)[nH]c(=O)n(Cc3ccccc3)c2n1
EC50 [3]: > 300 µM (not active)
IC50 (Prothrombin): 46.6 µM (active)
EC50 [4]: > 300 µM (not active)
IC50 [5]: 38.4 µM (active)
IC50 [6]: > 100 µM (inactive)

Cc1cc(-c2nc3ncccc3o2)ccc1NC(=O)c1ccc([N+](=O)[O-])o1
IC50 (HEK293 [1]): 32 µM (inactive)
IC50 (Jurkat): 19.4 µM (active)
IC50 (HEK293 [2]): 30 µM (inactive)

O=[N+]([O-])c1ccc(-c2nc(C(Cl)Cl)c3ccccc3n2)cc1
AC50 (INS1): 1.89 µM (active)
EC50 [7]: 1.79 µM (active)
EC50 [8]: 0.336 µM (active)
EC50 [9]: > 260 µM (inconclusive)
IC50 [10]: > 80 µM (inactive)
EC50 [11]: 0.407 µM (active)

CC(C)(C)OC(=O)NCC(=O)N1CCC(C(=O)O)CC1
AC50 (Escherichia coli): 26.6 µM (active)

CCc1cc(C(=O)NC2CCCN(Cc3ccccc3F)C2)n(C)n1 (stereo not given)
EC50 (HEK293 [12]): 9.78 µM (active)
IC50 (HEK293 [13]): > 20 µM (inactive)
IC50 (HEK293 [14]): > 20 µM (inactive)
IC50 (HEK293 [15]): 16.5 µM (active)

Cc1ccc2c(c1)N(C)/C(=C/c1cccc[n+]1C)S2
EC50 (HEK293 [12]): 13.3 µM (active)
AC50 [16]: 63.1 µM (active)
IC50 (HEK293 [13]): > 20 µM (inactive)
EC50 [17]: > 60 µM (not active)
IC50 (HEK293 [14]): 17 µM (inactive)
IC50 (HEK293 [15]): 10.6 µM (active)
EC50 (cells): 0.015 µM (active)
EC50 [18]: < 0.1 µM (active)
